14 compounds from patent US11306078B2, “Piperidine CXCR7 receptor modulators” (IDORSIA PHARMACEUTICALS LTD., priority 2016, dated 2022) can be followed below.

In general, IC50 refers to the point on the concentration scale where inhibition reaches its midpoint.

human chemokine receptor CXCR7, sequence (P25106 whole entry): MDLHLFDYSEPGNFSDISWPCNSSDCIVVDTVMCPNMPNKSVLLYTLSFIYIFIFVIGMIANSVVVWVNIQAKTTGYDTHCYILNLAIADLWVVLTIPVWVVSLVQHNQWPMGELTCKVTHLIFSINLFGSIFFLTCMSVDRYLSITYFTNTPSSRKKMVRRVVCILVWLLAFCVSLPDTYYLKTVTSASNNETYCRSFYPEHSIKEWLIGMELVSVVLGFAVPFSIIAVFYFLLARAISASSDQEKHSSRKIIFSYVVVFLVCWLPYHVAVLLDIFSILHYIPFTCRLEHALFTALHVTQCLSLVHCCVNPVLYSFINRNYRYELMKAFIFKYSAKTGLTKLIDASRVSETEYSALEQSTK

The experiment concerns the target human chemokine receptor CXCR7 (Homo sapiens (Human), UniProt P25106). Description: Tango CXCR7-bla U2OS beta-arrestin recruitment assay (beta-lactamase reporter, FRET), antagonism of CXCL12/SDF1-α.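 Also: compounds preincubated 15 min before CXCL12 addition, then 22 h at 37 °C, FRET emission ratio read with CCF4-AM substrate after 2 h.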 Type of experiment: cell-based. As to conditions: antagonistic effect on CXCR7; Tango CXCR7-bla U2OS cells, CXCL12/SDF1-α at its EC80. Background: Recruitment of arrestin is a read-out of receptor activation apart from second messengers.
Take `O=C(N[C@@H]1CCN(C2CCCCC2)C[C@H]1C(=O)NC1CCCC1)c1cc(-c2ccc(F)cc2F)on1` (racemic) [Example 1.003, rac-(3R*,4R*)-1-Cyclohexyl-4-{[5-(2,4-difluoro-phenyl)-isoxazole-3-carbonyl]-amino}-piperidine-3-carboxylic acid cyclopentylamide]: the IC50 was found to be 0.564 µM.

For `CN(CCc1ccccc1)C(=O)[C@@H]1CN(CCO)CC[C@H]1NC(=O)c1cc(-c2ccc(F)cc2F)on1` [Example 2.052], the IC50 amounted to 0.267 µM.

`CC1(NC(=O)[C@@H]2CN(C3CCCCC3)CC[C@H]2NC(=O)c2cc(-c3ccc(F)cc3F)on2)CCC1` [Example 4.016] displayed an IC50 of 0.463 µM. Compared with the last compound, the IC50 is about 1.7-fold higher.

`O=C(N[C@H]1CCN(CC2CC2)C[C@@H]1C(=O)NC1(c2ccc(F)cc2)CC1)c1cc(-c2ccc(F)cc2F)on1` [Example 4.062] registered an IC50 of 0.141 µM.

On to `CC(C)N1CC[C@@H](NC(=O)c2cc(-c3ccc(F)cc3F)on2)[C@H](C(=O)N(C)CCc2ccccc2)C1` [Example 2.003], for which the IC50 is 0.034 µM.

Compound `O=C(N[C@H]1CCN(CC2CC2)C[C@@H]1C(=O)NC1(c2cccc[n+]2[O-])CC1)c1cc(-c2ccc(F)cc2F)on1` [Example 2.061] displayed an IC50 of 0.041 µM. This IC50 and that of the compound before are within 1.5-fold of each other.

`O=C(N[C@@H]1CCN(CC2CC2)C[C@H]1C(=O)NC1(c2ccccn2)CC1)c1ncc(-c2ccc(F)cc2F)o1` (racemic) [Example 3.015, rac-(3R*,4R*)-1-Cyclopropylmethyl-4-{[5-(2,4-difluoro-phenyl)-oxazole-2-carbonyl]-amino}-piperidine-3-carboxylic acid (1-pyridin-2-yl-cyclopropyl)-amide] had an IC50 of 0.17 µM. This IC50 lies about 4.1-fold higher than the previous one.

Regarding `O=C(N[C@@H]1CCN(CC2CC2)C[C@H]1C(=O)NC1(c2ncccn2)CC1)c1cc(-c2cccc(C(F)(F)F)c2)on1` (racemic) [Example 1.193, rac-(3R*,4R*)-1-Cyclopropylmethyl-4-{[5-(3-trifluoromethyl-phenyl)-isoxazole-3-carbonyl]-amino}-piperidine-3-carboxylic acid (1-pyrimidin-2-yl-cyclopropyl)-amide], half-maximal inhibition (IC50) required 0.191 µM.

`CN(C)CCN(C)C(=O)[C@@H]1CN(C2CCCCC2)CC[C@H]1NC(=O)c1cc(-c2ccc(F)cc2F)on1` (racemic) [Example 1.018, rac-(3R*,4R*)-1-Cyclohexyl-4-{[5-(2,4-difluoro-phenyl)-isoxazole-3-carbonyl]-amino}-piperidine-3-carboxylic acid (2-dimethylamino-ethyl)-methyl-amide] returned an IC50 of 0.317 µM. Against the preceding compound, the IC50 is about 1.7-fold higher.

In the case of `O=C(N[C@@H]1CCN(C2CCCCC2)C[C@H]1C(=O)NCCOC(F)(F)F)c1cc(-c2ccc(F)cc2F)on1` (racemic) [Example 1.038, rac-(3R*,4R*)-1-Cyclohexyl-4-{[5-(2,4-difluoro-phenyl)-isoxazole-3-carbonyl]-amino}-piperidine-3-carboxylic acid (2-trifluoromethoxy-ethyl)-amide], the IC50 is 0.49 µM.

The compound `CN(C)C(=O)[C@@H]1CN(C2CC3(CCC3)C2)CC[C@H]1NC(=O)c1cc(-c2ccc(F)cc2F)on1` [Example 2.025] yielded an IC50 of 0.435 µM. This IC50 and that of the compound before are within 1.5-fold of each other.

`CCc1noc(CNC(=O)[C@@H]2CN(C3CCCCC3)CC[C@H]2NC(=O)c2cc(-c3ccc(F)cc3F)on2)n1` (racemic) [Example 1.047, rac-(3R*,4R*)-1-Cyclohexyl-4-{[5-(2,4-difluoro-phenyl)-isoxazole-3-carbonyl]-amino}-piperidine-3-carboxylic acid (3-ethyl-[1,2,4]oxadiazol-5-ylmethyl)-amide] returned an IC50 of 0.127 µM.

With `O=C(N[C@@H]1CCN(C2CCCCC2)C[C@H]1C(=O)NC1(c2ccccn2)CC1)c1cn(-c2ccc(F)cc2F)nn1` (single isomer, unassigned) [Example 1.165b, (3R*,4R*)-1-Cyclohexyl-4-{[1-(2,4-difluoro-phenyl)-1H-[1,2,3]triazole-4-carbonyl]-amino}-piperidine-3-carboxylic acid (1-pyridin-2-yl-cyclopropyl)-amide], the midpoint of inhibition, the IC50, lay at 0.537 µM.

For the compound `O=C(N[C@H]1CCNC[C@@H]1C(=O)NC1(c2ncccn2)CC1)c1ncc(-c2ccc(F)cc2F)o1` [Example 2.096], the IC50 turned out to be 0.634 µM.
